Experimental data as given in US9561228B2 (Celgene Avilomics Research, Inc., priority 2013, dated 2017).

Columns and labels:
[1] = test system: ERK1/2 phosphorylation of p90RSK in HCT116 cells; experiment: Detection of total and phospho-RSK by MSD ELISA (HCT116); format: cell-based; conditions: Homo sapiens, HCT-116, read-out: ERK1/ERK2 PRSK HCT116 EC50
Method in brief: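 ERK1/2 activity read in cells as p90RSK phosphorylation: lysates from HCT116 cells given compound for 2 h at 37° C were captured on MSD plates. Detection used a pSer380 RSK or a total RSK antibody with SulfoTag secondaries.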

[2] = test system: ERK1/2 phosphorylation of p90RSK in HT29 cells; experiment: pRSK MSD Assay in HT29 cells; format: cell-based; conditions: Homo sapiens, HT-29, read-out: ERK1/ERK2 PRSK MSD HT29 EC50
Method in brief: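 Phospho-RSK level, read by electrochemiluminescence on RSK-antibody-coated MSD plates with a phospho-RSK/Sulfo-tag detection pair, reports cellular ERK1/2 activity. HT29 cells, kept overnight in 0.1% FBS medium, were exposed to compound for 120 min at 37° C before lysis.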

Molecule `C=CC(=O)Nc1cc(CN2CCN(C(=O)c3cccnc3)CC2)ccc1Nc1nc(Nc2nc(OC)ncc2C)ncc1C(F)(F)F` [Compound I-392, N-(2-((2-((2-methoxy-5-methylpyrimidin-4-yl)amino)-5-(trifluoromethyl)pyrimidin-4-yl)amino)-5-((4-nicotinoylpiperazin-1-yl)methyl)phenyl)acrylamide] has an EC50 [1] of over 1 µM and an EC50 [2] of 0.501 to 0.999 µM.
`C=CC(=O)Nc1cc(CN2CCN(C(=O)c3cnccn3)CC2)ccc1Nc1nc(Nc2nc(OC)ncc2C)ncc1C(F)(F)F` [Compound I-393, N-(2-((2-((2-methoxy-5-methylpyrimidin-4-yl)amino)-5-(trifluoromethyl)pyrimidin-4-yl)amino)-5-((4-(pyrazine-2-carbonyl)piperazin-1-yl)methyl)phenyl)acrylamide] was tested, and the EC50 [1] was 0.501 to 0.999 µM and the EC50 [2] was 0.501 to 0.999 µM.
`C=CC(=O)Nc1cc(CN2CCN(C)CC2)ccc1Nc1nc(Nc2nc(OC)ncc2C)ncc1C(F)(F)F` [Compound I-394, N-(2-((2-((2-methoxy-5-methylpyrimidin-4-yl)amino)-5-(trifluoromethyl)pyrimidin-4-yl)amino)-5-((4-methylpiperazin-1-yl)methyl)phenyl)acrylamide] was tested, and the EC50 [1] was 0.501 to 0.999 µM and the EC50 [2] was 0.501 to 0.999 µM.
Molecule `C=CC(=O)Nc1ccc(OCC(N)=O)cc1Nc1nc(NC2CCOCC2)ncc1C(F)(F)F` [Compound I-395, N-(4-(2-amino-2-oxoethoxy)-2-((2-((tetrahydro-2H-pyran-4-yl)amino)-5-(trifluoromethyl)pyrimidin-4-yl)amino)phenyl)acrylamide] has an EC50 [1] of over 1 µM and an EC50 [2] of over 1 µM.
`C=CC(=O)Nc1cc(OCCN)ccc1Nc1nc(Nc2cc(OC)ncc2C)ncc1C(F)(F)F` [Compound I-396, N-(5-(2-aminoethoxy)-2-((2-((2-methoxy-5-methylpyridin-4-yl)amino)-5-(trifluoromethyl)pyrimidin-4-yl)amino)phenyl)acrylamide] showed an EC50 [1] of 0.101 to 0.5 µM and an EC50 [2] of 0.101 to 0.5 µM.
With `C=CC(=O)Nc1cc(C)c(C#N)cc1Nc1nc(NC2CCOCC2)ncc1C(F)(F)F` [Compound I-397, N-(4-cyano-5-methyl-2-((2-((tetrahydro-2H-pyran-4-yl)amino)-5-(trifluoromethyl)pyrimidin-4-yl)amino)phenyl)acrylamide] the EC50 [1] was over 1 µM and the EC50 [2] was 0.501 to 0.999 µM.
Molecule `C=CC(=O)Nc1cc(OCC(N)=O)ccc1Nc1nc(Nc2cc(OC)ncc2C)ncc1C(F)(F)F` [Compound I-398, N-(5-(2-amino-2-oxoethoxy)-2-((2-((2-methoxy-5-methylpyridin-4-yl)amino)-5-(trifluoromethyl)pyrimidin-4-yl)amino)phenyl)acrylamide] has an EC50 [1] of under 0.1 µM and an EC50 [2] of under 0.1 µM.
`C=CC(=O)Nc1cc(CN2CCOCC2)ccc1Nc1nc(Nc2cc(OC)ncc2C)ncc1C(F)(F)F` [Compound I-399, N-(2-((2-((2-methoxy-5-methylpyridin-4-yl)amino)-5-(trifluoromethyl)pyrimidin-4-yl)amino)-5-(morpholinomethyl)phenyl)acrylamide] gave an EC50 [1] of 0.101 to 0.5 µM and an EC50 [2] of 0.501 to 0.999 µM.
Molecule `C=CC(=O)Nc1cc(CCC(N)=O)ccc1Nc1nc(Nc2cc(OC)ncc2C)ncc1C(F)(F)F` [Compound I-400, N-(5-(3-amino-3-oxopropyl)-2-((2-((2-methoxy-5-methylpyridin-4-yl)amino)-5-(trifluoromethyl)pyrimidin-4-yl)amino)phenyl)acrylamide] has an EC50 [1] of under 0.1 µM and an EC50 [2] of under 0.1 µM.
`C=CC(=O)Nc1cc(C(=O)N2CCN(S(C)(=O)=O)CC2)ccc1Nc1nc(Nc2cc(OC)ncc2C)ncc1C(F)(F)F` [Compound I-401, N-(2-((2-((2-methoxy-5-methylpyridin-4-yl)amino)-5-(trifluoromethyl)pyrimidin-4-yl)amino)-5-(4-(methylsulfonyl)piperazine-1-carbonyl)phenyl)acrylamide] was tested, and the EC50 [1] was 0.101 to 0.5 µM and the EC50 [2] was 0.101 to 0.5 µM.
In the case of `C=CC(=O)Nc1cc(OC(F)(F)F)ccc1Nc1nc(Nc2cc(OC)ncc2C)ncc1C(F)(F)F` [Compound I-407, N-(2-((2-((2-methoxy-5-methylpyridin-4-yl)amino)-5-(trifluoromethyl)pyrimidin-4-yl)amino)-5-(trifluoromethoxy)phenyl)acrylamide], the EC50 [1] is reported as 0.101 to 0.5 µM and the EC50 [2] is reported as under 0.1 µM.
`C=CC(=O)Nc1cc(C)ccc1Nc1nc(Nc2cc(OC)ncc2CC)ncc1C(F)(F)F` [Compound I-408, N-(2-((2-((5-ethyl-2-methoxypyridin-4-yl)amino)-5-(trifluoromethyl)pyrimidin-4-yl)amino)-5-methylphenyl)acrylamide] showed an EC50 [1] of 0.501 to 0.999 µM and an EC50 [2] of 0.101 to 0.5 µM.
In the case of `C=CC(=O)Nc1cc(O[C@H](C)C(=O)N2CCN(C(C)=O)CC2)ccc1Nc1nc(Nc2cc(OC)ncc2C)ncc1C(F)(F)F` [Compound I-409, (R)—N-(5-((1-(4-acetylpiperazin-1-yl)-1-oxopropan-2-yl)oxy)-2-((2-((2-methoxy-5-methylpyridin-4-yl)amino)-5-(trifluoromethyl)pyrimidin-4-yl)amino)phenyl)acrylamide], the EC50 [1] is reported as 0.501 to 0.999 µM and the EC50 [2] is reported as 0.501 to 0.999 µM.
`C=CC(=O)Nc1cc(O[C@H](C)C(=O)N2CCN(S(C)(=O)=O)CC2)ccc1Nc1nc(Nc2cc(OC)ncc2C)ncc1C(F)(F)F` [Compound I-410, (R)—N-(2-((2-((2-methoxy-5-methylpyridin-4-yl)amino)-5-(trifluoromethyl)pyrimidin-4-yl)amino)-5-((1-(4-(methylsulfonyl)piperazin-1-yl)-1-oxopropan-2-yl)oxy)phenyl)acrylamide] gave an EC50 [1] of 0.101 to 0.5 µM and an EC50 [2] of 0.101 to 0.5 µM.
`C=CC(=O)Nc1c(Nc2nc(Nc3cc(OC)ncc3C)ncc2OC)cccc1OCc1nccs1` [Compound I-411, N-(2-((5-methoxy-2-((2-methoxy-5-methylpyridin-4-yl)amino)pyrimidin-4-yl)amino)-6-(thiazol-2-ylmethoxy)phenyl)acrylamide] gave an EC50 [1] of over 1 µM and an EC50 [2] of over 1 µM.
Molecule `C=CC(=O)Nc1cc(O[C@@H](C)C(N)=O)ccc1Nc1nc(Nc2cc(OC)ncc2C)ncc1C(F)(F)F` [Compound I-412, (S)—N-(5-((1-amino-1-oxopropan-2-yl)oxy)-2-((2-((2-methoxy-5-methylpyridin-4-yl)amino)-5-(trifluoromethyl)pyrimidin-4-yl)amino)phenyl)acrylamide] has an EC50 [1] of 0.101 to 0.5 µM and an EC50 [2] of over 1 µM.
For `C=CC(=O)Nc1cc(O[C@H](C)C(N)=O)ccc1Nc1nc(Nc2cc(OC)ncc2C)ncc1C(F)(F)F` [Compound I-413, (R)—N-(5-((1-amino-1-oxopropan-2-yl)oxy)-2-((2-((2-methoxy-5-methylpyridin-4-yl)amino)-5-(trifluoromethyl)pyrimidin-4-yl)amino)phenyl)acrylamide], the EC50 [1] was under 0.1 µM and the EC50 [2] was under 0.1 µM.
`C=CC(=O)Nc1cc(OCC(=O)N2CCN(C(C)=O)CC2)ccc1Nc1nc(Nc2cc(OC)ncc2OC)ncc1C(F)(F)F` [Compound I-415, N-(5-(2-(4-acetylpiperazin-1-yl)-2-oxoethoxy)-2-((2-((2,5-dimethoxypyridin-4-yl)amino)-5-(trifluoromethyl)pyrimidin-4-yl)amino)phenyl)acrylamide] gave an EC50 [1] of 0.101 to 0.5 µM and an EC50 [2] of 0.501 to 0.999 µM.
Molecule `C=CC(=O)Nc1cc(OCCN2CCN(C(C)=O)CC2)ccc1Nc1nc(Nc2cc(OC)ncc2C)ncc1C(F)(F)F` [Compound I-416, N-(5-(2-(4-acetylpiperazin-1-yl)ethoxy)-2-((2-((2-methoxy-5-methylpyridin-4-yl)amino)-5-(trifluoromethyl)pyrimidin-4-yl)amino)phenyl)acrylamide] has an EC50 [1] of 0.101 to 0.5 µM and an EC50 [2] of 0.101 to 0.5 µM.
`C=CC(=O)Nc1cc(C)ccc1Nc1nc(NCC2COC2)ncc1C(F)(F)F` [Compound I-417, N-(5-methyl-2-((2-((oxetan-3-ylmethyl)amino)-5-(trifluoromethyl)pyrimidin-4-yl)amino)phenyl)acrylamide] gave an EC50 [1] of over 1 µM and an EC50 [2] of over 1 µM.
With `C=CC(=O)Nc1cc(C)ccc1Nc1nc(Nc2cc(C(=O)OC)nn2C)ncc1C(F)(F)F` [Compound I-418, Methyl 5-((4-((2-acrylamido-4-methylphenyl)amino)-5-(trifluoromethyl)pyrimidin-2-yl)amino)-1-methyl-1H-pyrazole-3-carboxylate] the EC50 [1] was 0.101 to 0.5 µM and the EC50 [2] was 0.501 to 0.999 µM.
With `C=CC(=O)Nc1cc(C)ccc1Nc1nc(Nc2cc(C(F)(F)F)nn2C)ncc1C(F)(F)F` [Compound I-419, N-(5-methyl-2-((2-((1-methyl-3-(trifluoromethyl)-1H-pyrazol-5-yl)amino)-5-(trifluoromethyl)pyrimidin-4-yl)amino)phenyl)acrylamide] the EC50 [1] was over 1 µM and the EC50 [2] was over 1 µM.
`C=CC(=O)Nc1cc(C)ccc1Nc1nc(NC2COC2)ncc1C(F)(F)F` [Compound I-420, N-(5-methyl-2-((2-(oxetan-3-ylamino)-5-(trifluoromethyl)pyrimidin-4-yl)amino)phenyl)acrylamide] showed an EC50 [1] of over 1 µM and an EC50 [2] of over 1 µM.
With `C=CC(=O)Nc1cc(CN2CCN(C(C)=O)C[C@@H]2C)ccc1Nc1nc(Nc2cc(OC)ncc2C)ncc1C(F)(F)F` [Compound I-421, (S)—N-(5-((4-acetyl-2-methylpiperazin-1-yl)methyl)-2-((2-((2-methoxy-5-methylpyridin-4-yl)amino)-5-(trifluoromethyl)pyrimidin-4-yl)amino)phenyl)acrylamide] the EC50 [1] was 0.101 to 0.5 µM and the EC50 [2] was 0.101 to 0.5 µM.
Molecule `C=CC(=O)Nc1cc(CN2CCN(C(C)=O)C[C@H]2C)ccc1Nc1nc(Nc2cc(OC)ncc2C)ncc1C(F)(F)F` [Compound I-422, (R)—N-(5-((4-acetyl-2-methylpiperazin-1-yl)methyl)-2-((2-((2-methoxy-5-methylpyridin-4-yl)amino)-5-(trifluoromethyl)pyrimidin-4-yl)amino)phenyl)acrylamide] has an EC50 [1] of under 0.1 µM and an EC50 [2] of 0.101 to 0.5 µM.
